This note sets out measurements from ChEMBL document CHEMBL1140892, “Synthesis and evaluation of rifabutin analogs against Mycobacterium avium and H(37)Rv, MDR and NRP Mycobacterium tuberculosis” (Bioorg Med Chem, 2009).

Structures are written as SMILES. Values after ≈ are worked out from the molar mass of the structure shown. Active and inactive are the calls of the source. The calls are words filed in the database; no cut-off is given here. A value given as a limit tells only on which side of the number the result lay.

One assay concerns Vero. The assay can be described thus: Cytotoxicity against african green monkey Vero cells after 72 hrs by MTS assay. In kind it is cell-based. Conditions: Chlorocebus sabaeus.
Assay [1] in a line: Selectivity index, ratio of IC50 for african green monkey Vero cells to MIC for non-replicating Mycobacterium tuberculosis. It counts as functional.
Assay [2] has as its system Mycobacterium tuberculosis. The assay can be described thus: Antimycobacterial activity against non-replicating Mycobacterium tuberculosis assessed as luciferase activity incubated for 8 days measured after 24 hrs of incubation by low oxygen recover assay. It counts as functional.
Assay [3] relates to Mycobacterium tuberculosis. The assay can be described thus: Antimycobacterial activity against Mycobacterium tuberculosis H37Rv infected in BALB/c mouse assessed as reduction of bacterial load in lungs at 5 mg/kg/day, intragastrically after 1 month relative to control. In kind it is functional, organism-based.
Assay [4] deals with Mycobacterium tuberculosis. The experiment in a line: Antimycobacterial activity against Mycobacterium tuberculosis H37Rv after 7 days by resazurin method. In kind it is functional. Conditions: 168 h.
In assay [5] the test system is Mycobacterium tuberculosis. The assay can be described thus: Antimycobacterial activity against Mycobacterium tuberculosis H37Rv infected in BALB/c mouse assessed as reduction of bacterial load in lungs at 25 mg/kg/day, intragastrically after 1 month relative to control. It counts as functional, organism-based.
In assay [6] the test system is Mycobacterium avium. The assay can be described thus: Antimycobacterial activity against Mycobacterium avium 1581 at 0.4 mg/mL after 15 days relative to control. In kind it is functional. Conditions: for inhibition at 400 µg/mL: 360 h.
Assay [7] relates to Mycobacterium tuberculosis. The assay can be described thus: Antimycobacterial activity against non-replicating Mycobacterium tuberculosis assessed as colony forming unit after 8 days. In kind it is functional. To be noted: 192 h.
The subject of assay [8] is Mycobacterium avium. The experiment in a line: Antimycobacterial activity against Mycobacterium avium 1581 at 0.2 mg/mL after 15 days relative to control. Conditions: 360 h. It counts as functional.
In assay [9] the test system is Mycobacterium tuberculosis. The experiment in a line: Antimycobacterial activity against Mycobacterium tuberculosis H37Rv infected in BALB/c mouse assessed as lungs affected by pneumonia at 25 mg/kg/day, intragastrically after 1 month by histopathology study relative to control. In kind it is functional, organism-based.
Assay [10] relates to Mycobacterium avium. The assay can be described thus: Antimycobacterial activity against Mycobacterium avium 1581 at 0.1 mg/mL after 15 days relative to control. Conditions: 360 h. In kind it is functional.

Regarding `CO[C@H]1/C=C/O[C@@]2(C)Oc3c(C)c(O)c4c(c3C2=O)C2=NC3(CCN(CC(C)C)CC3)N(C(C)=O)C2=C(NC(=O)/C(C)=C\C=C\[C@H](C)[C@H](O)[C@@H](C)[C@@H](O)[C@@H](C)[C@H](OC(C)=O)[C@@H]1C)C4=O`, in the assay with Vero, the IC50 was more than 92.7 µM. For the same molecule, the Selectivity ratio in [1] was more than 331. Moreover, the minimal inhibitory concentration (MIC) in [2] was 0.28 µM (≈ 0.249 µg/mL); in assay [4], less than 0.013 µg/mL. Besides, the outcome in [3] and in assay [5] was Active. In addition, in the assay on Mycobacterium avium [6], the inhibition at 400 µg/mL was more than 99%. Moreover, in assay [7], the minimum bactericidal concentration (MBC) was 0.18 µM (≈ 0.16 µg/mL). In addition, the inhibition at 200 µg/mL with Mycobacterium avium [8] is more than 99%.

For `CO[C@H]1/C=C/O[C@@]2(C)Oc3c(C)c(O)c4c(c3C2=O)C2=NC3(CC[N+]([O-])(CC(C)C)CC3)NC2=C(NC(=O)/C(C)=C\C=C\[C@H](C)[C@H](O)[C@@H](C)[C@@H](O)[C@@H](C)[C@H](O)[C@@H]1C)C4=O` (stereo partly specified), inhibition of growth in assay [4] (MIC) required 0.6 µg/mL (≈ 0.731 µM). Also, in the assay with Mycobacterium avium [6], the outcome was inactive.

Regarding `CO[C@H]1/C=C/O[C@@]2(C)Oc3c(C)c(O)c4c(c3[C@H]2O)C2=NC3(CCN(CC(C)C)CC3)N(C(C)=O)C2=C(NC(=O)/C(C)=C\C=C\[C@H](C)[C@H](O)[C@@H](C)[C@@H](O)[C@@H](C)[C@H](OC(C)=O)[C@@H]1C)C4=O`, 0.1 µg/mL (≈ 0.112 µM) was the least that counted as inhibitory in [4] (MIC). The molecule also displayed an inhibition at 400 µg/mL in the assay with Mycobacterium avium [6] of more than 99%. In the assay with Mycobacterium avium [8], the inhibition at 200 µg/mL was found to be 54%.

Regarding `CCCCCCCCCCCCCCCC(=O)N1C2=C3NC(=O)/C(C)=C\C=C\[C@H](C)[C@H](O)[C@@H](C)[C@@H](O)[C@@H](C)[C@H](OC(C)=O)[C@H](C)[C@@H](OC)/C=C/O[C@@]4(C)Oc5c(C)c(O)c(c(c5C4=O)C2=NC12CCN(CC(C)C)CC2)C3=O`, in the assay with Vero, the IC50 was more than 34.8 µM. For the same molecule, in [1], the Selectivity ratio was more than 32. Besides, the MIC in [2] came to 1.08 µM (≈ 1.17 µg/mL); in assay [4], 0.1 µg/mL (≈ 0.0921 µM). The MBC in assay [7] was 0.14 µM (≈ 0.152 µg/mL).

For `C=CCCCCCCCCC(=O)N1C2=C3NC(=O)/C(C)=C\C=C\[C@H](C)[C@H](O)[C@@H](C)[C@@H](O)[C@@H](C)[C@H](OC(C)=O)[C@H](C)[C@@H](OC)/C=C/O[C@@]4(C)Oc5c(C)c(O)c(c(c5C4=O)C2=NC12CCN(CC(C)C)CC2)C3=O`, in the assay on Vero, the midpoint of inhibition, the IC50, lay at 36.9 µM. Also, the Selectivity ratio in assay [1] was found to be 462. For the same molecule, the results for the MIC in assay [2] and in [4] were 0.08 µM (≈ 0.0811 µg/mL) and 0.1 µg/mL (≈ 0.0987 µM), respectively. The outcome in assay [3], in assay [9] and in assay [5] was inactive. The same molecule displayed an inhibition at 400 µg/mL with Mycobacterium avium [6] of more than 99%. Also, the MBC in [7] stood at 0.08 µM (≈ 0.0811 µg/mL). In the assay on Mycobacterium avium [8], this molecule returned an inhibition at 200 µg/mL of 60%.

Take `CO[C@H]1/C=C/O[C@@]2(C)Oc3c(C)c(O)c4c(c3C2=O)C2=NC3(CCN(CC(C)C)CC3)NC2=C(NC(=O)/C(C)=C\C=C\[C@H](C)[C@H](O)[C@@H](C)[C@@H](O)[C@@H](C)[C@H](OC(C)=O)[C@@H]1C)C4=O` [RIFABUTIN]: the IC50 in the assay on Vero was more than 46.6 µM. For the same molecule, the Selectivity ratio in assay [1] is more than 582. The MIC is 0.08 µM (≈ 0.0678 µg/mL) in assay [2] and less than 0.013 µg/mL in assay [4]. Moreover, in the assay on Mycobacterium avium [10], the inhibition at 100 µg/mL is more than 99%. The MBC in assay [7] worked out at 0.05 µM (≈ 0.0424 µg/mL). The molecule also yielded an inhibition at 200 µg/mL with Mycobacterium avium [8] of more than 99%.

`CO[C@H]1/C=C/O[C@@]2(C)Oc3c(C)c(O)c4c(c3[C@H]2O)C2=NC3(CCN(CC(C)C)CC3)NC2=C(NC(=O)/C(C)=C\C=C\[C@H](C)[C@H](O)[C@@H](C)[C@@H](O)[C@@H](C)[C@H](OC(C)=O)[C@@H]1C)C4=O` [RIFABUTINOL] came in with a minimum inhibitory concentration (MIC) in assay [4] of less than 0.05 µg/mL. The molecule further showed an inhibition at 400 µg/mL in the assay on Mycobacterium avium [6] of more than 99%. Further, in the assay on Mycobacterium avium [8], the inhibition at 200 µg/mL stood at 86%.

In turn, `CO[C@H]1/C=C/O[C@@]2(C)Oc3c(C)c(O)c4c(O)c(c(/C=N/N5CCN(C)CC5)c(O)c4c3C2=O)NC(=O)/C(C)=C\C=C\[C@H](C)[C@H](O)[C@@H](C)[C@@H](O)[C@@H](C)[C@H](OC(C)=O)[C@@H]1C` [RIFAMPIN] showed an IC50 with Vero of 138 µM. For the same molecule, the Selectivity ratio in assay [1] was determined as 98. Moreover, in assay [2], the MIC is 1.41 µM (≈ 1.16 µg/mL). The MBC in assay [7] amounted to 0.39 µM (≈ 0.321 µg/mL).

With `CO[C@H]1/C=C/O[C@@]2(C)Oc3c(C)c(O)c4c(c3C2=O)C2=NC3(CC[N+]([O-])(CC(C)C)CC3)NC2=C(NC(=O)/C(C)=C\C=C\[C@H](C)[C@H](O)[C@@H](C)[C@@H](O)[C@@H](C)[C@H](OC(C)=O)[C@@H]1C)C4=O` (stereo partly specified), in the assay on Vero, the IC50 was more than 35.8 µM. Besides, the Selectivity ratio in assay [1] is more than 82. The MIC in [2] was 0.44 µM (≈ 0.38 µg/mL); in assay [4] it was 0.2 µg/mL (≈ 0.232 µM). Besides, the result with Mycobacterium avium [6] was inactive. The MBC in [7] was determined as 0.28 µM (≈ 0.242 µg/mL).

In [4], `CO[C@H]1/C=C/O[C@@]2(C)Oc3c(C)c(O)c4c(c3[C@H]2O)C2=NC3(CCN(CC(C)C)CC3)NC2=C(NC(=O)/C(C)=C\C=C\[C@H](C)[C@H](O)[C@@H](C)[C@@H](O)[C@@H](C)[C@H](O)[C@@H]1C)C4=O` had an MIC of 0.2 µg/mL (≈ 0.248 µM). In the assay with Mycobacterium avium [6], the result was inactive.

On to `CO[C@H]1/C=C/O[C@@]2(C)Oc3c(C)c(O)c4c(c3[C@H]2O)C2=NC3(CC[N+]([O-])(CC(C)C)CC3)NC2=C(NC(=O)/C(C)=C\C=C\[C@H](C)[C@H](O)[C@@H](C)[C@@H](O)[C@@H](C)[C@H](OC(C)=O)[C@@H]1C)C4=O` (stereo partly specified), for which the MIC in [4] was determined as 0.6 µg/mL (≈ 0.694 µM). In the assay with Mycobacterium avium [6], the inhibition at 400 µg/mL stood at 53%. The molecule also displayed an inhibition at 200 µg/mL with Mycobacterium avium [8] of 44%.

In turn, `CO[C@H]1/C=C/O[C@@]2(C)Oc3c(C)c(O)c4c(c3C2=O)C2=NC3(CCN(CC(C)C)CC3)NC2=C(NC(=O)/C(C)=C\C=C\[C@H](C)[C@H](O)[C@@H](C)[C@@H](O)[C@@H](C)[C@H](O)[C@@H]1C)C4=O` came in with an IC50 in the assay on Vero of more than 46.6 µM. In addition, the Selectivity ratio in assay [1] was more than 161. For the same molecule, the MIC turned out to be 0.29 µM (≈ 0.233 µg/mL) in assay [2] and 0.025 µg/mL (≈ 0.0311 µM) in [4]. This molecule displayed an inhibition at 400 µg/mL with Mycobacterium avium [6] of more than 99%. Besides, in assay [7], the minimum bactericidal concentration (MBC) is 0.18 µM (≈ 0.145 µg/mL). This molecule displayed an inhibition at 200 µg/mL with Mycobacterium avium [8] of 91%.

Broadly, the IC50 is the concentration needed to halve the response being measured. The term MIC denotes the lowest concentration that inhibits growth of the organism. Usually inhibition stands for how much of the control response was suppressed. Broadly, the MBC is the lowest tested concentration that kills the bacteria rather than only halting them.
